Experiments:
Type in all cases: in vivo
[1] = tested on: Alternaria solani; assay: Test F: tomato early blight, preventive spray on tomato seedlings; conditions: 50 ppm, 100 = 100% disease control, 0 = no control
Outline: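 Preventive test: one day after seedlings were sprayed to run-off with ppm-level suspensions (acetone/water 50/50, 250 ppm PEG400), A. solani spore inoculation followed. Incubation was 48 h at 27° C in saturated air plus 3 days at 20° C; disease control was scored visually versus controls (100 = full control).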

[2] = tested on: Phakopsora pachyrhizi; assay: Test D: Asian soybean rust, preventive spray on soybean seedlings; conditions: 50 ppm, 100 = 100% disease control, 0 = no control
Outline: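 Soybean seedlings sprayed to run-off with compound suspension (ppm, in 50/50 acetone/water with 250 ppm PEG400), inoculated next day with P. pachyrhizi spores, held 24 h saturated at 22°C then 8 days at 22°C. Visual rating 0-100% disease control relative to controls.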

[3] = tested on: Puccinia recondita f. sp. tritici; assay: Test B: wheat leaf rust, preventive spray on wheat seedlings; conditions: 50 ppm, 100 = 100% disease control, 0 = no control relative to controls
Outline: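 Wheat seedlings got a run-off spray (ppm, acetone/water 50/50, 250 ppm PEG400) and one day later a spore inoculum. After 24 h at 20° C. in saturated air and 7 days at 20° C., disease was scored as % control relative to controls (100 = full control).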

[4] = tested on: Botrytis cinerea; assay: Test E: tomato Botrytis, preventive spray on tomato seedlings; conditions: 50 ppm, 100 = 100% disease control, 0 = no control
Outline: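 Preventive test: spore inoculation one day after run-off spraying of compound suspension (3% acetone, acetone/water 50/50, 250 ppm PEG400). Incubation 20 °C saturated humidity for 48 h, followed by 3 days at 24 °C growth chamber; disease control scored visually, 100 = full control.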

[5] = tested on: Blumeria graminis f. sp. tritici; assay: Test C: wheat powdery mildew, preventive spray on wheat seedlings; conditions: 50 ppm, rated after 8 days, 100 = 100% disease control, 0 = no control
Outline: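 Wheat seedlings got a run-off spray of test suspension (ppm in acetone/water 50/50, 250 ppm PEG400, acetone 3% of volume), then spore-dust inoculation with wheat powdery mildew one day later. After 8 days' growth-chamber incubation at 20° C, disease control scored visually on a 0–100 scale versus untreated controls.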

[6] = tested on: Septoria tritici; assay: Test A: wheat leaf blotch, preventive spray on wheat seedlings; conditions: 50 ppm, 100 = 100% disease control, 0 = no control relative to controls
Outline: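 Preventive test: seedlings sprayed to run-off one day before Septoria tritici spore inoculation, with ppm doses in acetone/water containing 250 ppm PEG400. After 48 h at 24 °C in saturated air and 17 days at 20 °C, plants were scored 0–100 for disease control versus untreated controls.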

Row | Compound | Test F disease control rating (tomato early blight) [1] [%] | Test D disease control rating (Asian soybean rust) [2] [%] | Test B disease control rating (wheat leaf rust) [3] [%] | Test E disease control rating (tomato Botrytis) [4] [%] | Test C disease control rating (wheat powdery mildew) [5] [%] | Test A disease control rating (wheat leaf blotch) [6] [%] | pest or weed control at 50 ppm ([1]; Alternaria solani, read-out: Test F disease control rating (tomato early blight)) [%] | pest or weed control at 50 ppm ([2]; Phakopsora pachyrhizi, read-out: Test D disease control rating (Asian soybean rust)) [%] | pest or weed control at 50 ppm ([3]; read-out: Test B disease control rating (wheat leaf rust)) [%] | pest or weed control at 50 ppm ([4]; Botrytis cinerea, read-out: Test E disease control rating (tomato Botrytis)) [%] | pest or weed control at 50 ppm ([5]; Blumeria graminis, 192 h, read-out: Test C disease control rating (wheat powdery mildew)) [%] | pest or weed control at 50 ppm ([6]; Zymoseptoria tritici, read-out: Test A disease control rating (wheat leaf blotch)) [%]
1 | Cc1nn(C)c(Nc2ccccc2[N+](=O)[O-])c1-c1c(F)cc(F)cc1Br [Compound 154] | 51 | 0 | 80 | 99 | 98 | 99 | – | – | – | – | – | –
2 | Cc1nn(C)c(Nc2c(F)cc(Br)cc2[N+](=O)[O-])c1-c1ccc(C#N)cc1Cl [Compound 155] | 93 | 0 | 99 | 100 | 90 | 99 | – | – | – | – | – | –
3 | Cc1cc(Cl)c(Nc2c(-c3ccc(C#N)cc3Cl)c(C)nn2C)c([N+](=O)[O-])c1 [Compound 156] | 0 | 0 | 91 | 0 | 66 | 91 | – | – | – | – | – | –
4 | Cc1cccc([N+](=O)[O-])c1Nc1c(-c2ccc(C#N)cc2Cl)c(C)nn1C [Compound 157] | 0 | 0 | 97 | 9 | 76 | 100 | – | – | – | – | – | –
5 | Cc1nn(C)c(Nc2c(Cl)cccc2[N+](=O)[O-])c1-c1c(F)cc(F)cc1F [Compound 158] | 83 | 87 | 100 | 99 | 99 | 99 | – | – | – | – | – | –
6 | COc1ccc(Nc2c(-c3c(F)cc(F)cc3F)c(C)nn2C)c([N+](=O)[O-])c1 [Compound 159] | 99 | 13 | 100 | 99 | 100 | 100 | – | – | – | – | – | –
7 | COc1cc(F)c(-c2c(C)nn(C)c2Nc2c(Cl)cccc2[N+](=O)[O-])c(F)c1 [Compound 160] | 99 | 86 | 100 | 100 | 96 | 98 | – | – | – | – | – | –
8 | COc1cc(F)c(-c2c(C)nn(C)c2Nc2ccc(OC)cc2[N+](=O)[O-])c(F)c1 [Compound 161] | 99 | 0 | 100 | 100 | 100 | 100 | – | – | – | – | – | –
9 | COc1cc(F)c(-c2c(C)nn(C)c2Nc2c(C)cccc2[N+](=O)[O-])c(F)c1 [Compound 162] | 98 | 77 | 100 | 97 | 99 | 100 | – | – | – | – | – | –
10 | Cc1nn(C)c(Nc2c(Cl)cccc2[N+](=O)[O-])c1-c1c(F)cc(F)cc1Br [Compound 163] | 76 | 78 | 100 | 88 | 98 | 99 | – | – | – | – | – | –
11 | COc1ccc(Nc2c(-c3c(F)cc(F)cc3Br)c(C)nn2C)c([N+](=O)[O-])c1 [Compound 164] | 99 | 0 | 100 | 100 | 98 | 100 | – | – | – | – | – | –
12 | COc1cc(F)c(Nc2c(-c3ccc(F)cc3Br)c(C)nn2C)c([N+](=O)[O-])c1 [Compound 165] | 100 | 94 | 100 | 100 | 98 | 99 | – | – | – | – | – | –
13 | COc1cc(F)c(Nc2c(-c3ccc(C#N)cc3Cl)c(C)nn2C)c([N+](=O)[O-])c1 [Compound 166] | 100 | 98 | 100 | 99 | 98 | 99 | – | – | – | – | – | –
14 | Cc1cccc([N+](=O)[O-])c1Nc1c(-c2c(F)cc(F)cc2F)c(C)nn1C [Compound 167] | 98 | 65 | 100 | 95 | 98 | 100 | – | – | – | – | – | –
15 | Cc1nn(C)c(Nc2ccccc2[N+](=O)[O-])c1-c1c(F)cc(Cl)cc1F [Compound 168] | 40 | 0 | 74 | 99 | 97 | 100 | – | – | – | – | – | –
16 | Cc1cccc([N+](=O)[O-])c1Nc1c(-c2c(F)cc(F)cc2Br)c(C)nn1C [Compound 169] | 0 | 0 | 100 | 98 | 100 | 100 | – | – | – | – | – | –
17 | CCc1nn(C)c(Nc2c(F)cccc2[N+](=O)[O-])c1-c1c(F)cc(Cl)cc1F [Compound 170] | 99 | 0 | 99 | 100 | 99 | 100 | – | – | – | – | – | –
18 | CCc1nn(C)c(Nc2c(F)cc(Br)cc2[N+](=O)[O-])c1-c1ccc(F)cc1F [Compound 171] | 88 | 0 | 91 | 97 | 99 | 100 | – | – | – | – | – | –
19 | Cc1nn(C)c(N(C)c2c(F)cccc2[N+](=O)[O-])c1-c1ccc(F)cc1Cl [Compound 172] | – | – | – | – | – | – | 40 | 0 | 100 | 99 | 100 | 100
20 | CCc1nn(C)c(Nc2ccc(OC)cc2[N+](=O)[O-])c1-c1ccc(F)cc1Cl [Compound 173] | 93 | 0 | 100 | 98 | 98 | 100 | – | – | – | – | – | –
21 | CCc1nn(C)c(Nc2ccc(C)cc2[N+](=O)[O-])c1-c1ccc(F)cc1Cl [Compound 174] | 39 | 0 | 95 | 99 | 92 | 100 | – | – | – | – | – | –

Reference: patent US12398107B2, “Fungicidal nitroanilino substituted pyrazoles” (FMC Corporation, priority 2018, dated 2025)
